Measurements published in patent US9707178B2, “Pharmaceutical composition” (Lek Pharmaceuticals, d.d., priority 2006, dated 2017).

Legend:
[1] = pH of excipient measured by a glass electrode, 1 g in 100 g of water at room temperature; assay type: physicochemical; conditions: aqueous solution or suspension
Excerpt: In general we observed a best stabilization where each of the constituents being incorporated into a composition has a pH less than 9, preferably less than 8; but can have pH above 5. […] We have concluded that the excipients, being in contact with olmesartan medoxomil, being incorporated into a composition should preferably have a pH less that 8 if measured by a glass electrode in an aqueous solution or suspension containing 1 g of said excipient in 100 g of water at room temperature. Thus the pH of excipents uses in examples is as follows; lactose: about 5.2, L-HPC: about 6.7, MCC: about 6.7, stearic acid: about 5.4, Mg stearate: about 9.5, coating suspension (Example 3): about 6.6.

[2] = Stability of bulk olmesartan medoxomil in solution at different pH; assay type: physicochemical
Experimental: The main degradation product is olmesartan acid. […] In a solution at pH=7 the amount of formed olmesartan acid increases by 0.5% in 24 hours, while in 1M HCl the amount increases by approximately 6%. The amounts of individual and total impurities are measured in area % and determined by HPLC using the following procedure: a sample solution was prepared by diluting quantity of pulverized tablet equivalent to 25 mg of olmesartan medoxomil in 50 ml volumetric flask to volume with diluent (Eluent A+Eluent B=50%/50%). Column Waters Xbridge C18, 150×4.6 mm, 3.5 μm was used and eluted by Eluent A (0.025 M KH2PO4 adjusted to pH=2.5 with 50% H3PO4) and Eluent B (acetonitrile) with following gradient: A:B=100:0, from 15 to 30 minutes A:B=70:30, after 30 min A.B=0:100. Flow rate was […], Injection volume was 20 μl, column temperature was 30° C., detection wavelength at 225 nm.

Row | Structure (SMILES) | pH of excipient [1] | Hydrolysis at basic conditions ([2]; basic conditions) | pH range in which most stable ([2]; bulk) | Increase of amount of formed olmesartan acid ([2]; in 1M HCl) | Increase of amount of formed olmesartan acid ([2]; solution at pH=7, 24 hours) [%]
1 | CCCCCCCCCCCCCCCCCC(=O)[O-].CCCCCCCCCCCCCCCCCC(=O)[O-].[Mg+2] [Mg stearate] | about 9.5 |  |  |  | 
2 | CCCCCCCCCCCCCCCCCC(=O)O [stearic acid] | about 5.4 |  |  |  | 
3 | CCCc1nc(C(C)(C)O)c(C(=O)OCc2oc(=O)oc2C)n1Cc1ccc(-c2ccccc2-c2nnn[nH]2)cc1 [olmesartan medoxomil, 4-(1-hydroxy-1-methylethyl)-2 propyl-1-[[2′-(1H-tetrazol-5-yl) [1,1′-biphenyl]-4-yl]methyl]-1H-imidazole-5-carboxylic acid (5-methyl-2-oxo-1,3-dioxol-4-yl)methyl ester] |  | almost completely hydrolyzes | 3-5 | approximately 6% | 0.5
4 | OC[C@H]1O[C@@H](O[C@H]2[C@H](O)[C@@H](O)C(O)O[C@@H]2CO)[C@H](O)[C@@H](O)[C@H]1O (stereo partly shown) [lactose] | about 5.2 |  |  |  | 
